{"source": "patent US8614236B2", "about": "(University of Washington, priority 2006, dated 2013)", "key": {"PASMCs": {"tested_on": "PASMCs", "assay": "Changes in membrane potential (Em) in PASMCs, DiBAC4(3) fluorescence", "format": "cell-based, rat", "conditions": "100 μM", "experimental": "The method for obtaining single PASMCs has been described previously in Shimoda L. A., et al., Am J Physiol 274: 842-853 (1998), which is hereby incorporated by reference in its entirety. Intrapulmonary arteries (200-600 μm o.d.) were isolated from male Wistar rats (250-350 g) and cleaned of connective tissue. After the lumen was gently rubbed with a cotton swab to remove the endothelial cells, the arteries were allowed to recover for 30 minutes in cold (4° C.) HBSS containing (in mM): 130 NaCl, 5 KCl, 1.2 MgCl2, 1.5 CaCl2, 10 N-[2-hydroxyethyl]piperazine-N′-[2-ethanesulfonic acid] (HEPES) and 10 glucose, with pH adjusted to 7.2 with 5 M NaOH, followed by 20 minutes in reduced-Ca^2+ (20 μM CaCl2) HBSS at room temperature. The tissue was enzymatically digested in reduced-Ca^2+ HBSS containing collagenase (type I; 1750 U/ml), papain (9.5 U/ml), bovine serum albumin (2 mg/ml) and dithiothreitol (1 mM) at 37° C. for 20 minutes. Following digestion, single smooth muscle cells were dispersed by gentle trituration with a wide-bore transfer pipette in Ca^2+-free HBSS and the cell suspension was placed on 25 mm glass cover slips. PASMCs were transiently cultured in Ham's-F-12 media supplemented with 0.5% fetal bovine serum and 1% penicillin/streptomycin for 24-48 hrs. before study.\nChanges in membrane potential were measured using the fluorescence dye, DiBAC4(3), which was excited at 490 nm and detected at 510 nm. Cells were loaded by continuous perfusion with Kreb's solution containing 500 nM DiBAC4(3) and were perfused for at least 15 minutes before beginning measurements to insure stable uptake of dye. Baseline DiBAC4(3) fluorescence was monitored for 5 minutes with control Kreb's, followed by 10 minutes with Kreb's in the presence or absence of AZ (100 μM). At the end of this period, cells were challenged with KCl (60 mM) or endothelin-1 (ET-1) (10^−8 M). Since DiBAC4(3) is a single wavelength dye, any change in the concentration of the dye in the perfusion medium (i.e., differing concentrations between perfusion reservoirs) could result in a change in fluorescence that is not due to a change in membrane potential. To minimize the possibility of this type of error, all experiments were performed using inflow from a single reservoir into which AZ, KCl or ET-1 were dissolved directly.\nAZ has recently been proposed to alter the activation of Ca^2+-activated K^+ channels, causing hyperpolarization. See Pickkers P., et al., Br J Pharmacol 132: 443-450 (2001); Tricarico D., et al., Ann Neurol 48: 304-312 (2000); and Tricarico D., et al., Faseb J 18: 760-761 (2004), which are hereby incorporated by reference in their entirety. Since depolarization is believed to contribute to the hypoxia-induced increase in [Ca^2+]i, AZ-induced hyperpolarization could prevent activation of voltage-gated Ca^2+ channels and an increase in [Ca^2+]i in response to hypoxia. In order to test this possibility, the Em-sensitive fluorescent dye, DiBAC4(3) was used. […] Baseline fluorescence was relatively stable over time, decreasing by 4.11±0.4% over 10 minutes (n=90 cells)."}, "Beagle dogs": {"tested_on": "Beagle dogs", "conditions": "iv 10 mg·kg^−1·h^−1; Höhne 2004; cited from earlier work"}}, "data": [{"molecule": "CC(=O)Nc1nnc(S(N)(=O)=O)s1", "note": "[AZ, acetazolamide]", "values": [{"measurement": "change in basal DiBAC4(3) fluorescence (basal Em)", "setting": "PASMCs", "value": "−2.86±4.5", "unit": "%"}, {"measurement": "effect on basal Em", "setting": "PASMCs", "value": "no significant effect"}, {"measurement": "increase in DiBAC4(3) fluorescence induced by ET-1 in presence of compound", "setting": "PASMCs; ET-1", "value": "66.0±10.4", "unit": "%"}, {"measurement": "increase in DiBAC4(3) fluorescence induced by KCl in presence of compound", "setting": "PASMCs; KCl", "value": "53.13±14.8", "unit": "%"}, {"measurement": "effect on HPV in conscious dogs", "setting": "Beagle dogs", "value": "totally abolished"}]}]}
